The data set can be described thus: Blood absorption of YLP in rats, UPLC-MS/MS. As to conditions: rat, in vivo, po, SD rats, intragastric 100 mg/kg bw. The method, then:
In this research, SD rats are used, and divided into three groups: a normal group and salmon YLP groups (with a daily dosage of 100 mg/kg bw). The rats are fasted but allowed to drink water 12 h before the experiment begins. At 15 min, 45 min, 90 min, 180 min and 360 min after intragastric administration, all the rats are anesthetized with the 3% pentobarbital sodium, and blood is collected from abdominal aortas, followed by euthanasia. […]
• (1) The required samples are taken out for thawing, and uniformly mixed by a vortex. • (2) 40 μL of a mixed sample is taken, and 120 μL of methanol is added for shaking treatment for 10 min, and a resultant is centrifuged at a low temperature for 10 min. • (3) 70 μL of a supernatant solution is taken from the centrifuged sample for subsequent measurement. 4.2.2.2 Preparation of Standard Solution
Chromatographic separation is performed by using a Waters ACQUITY UPLC I-CLASS ultra-high performance liquid chromatographic device. Specific conditions are as follows: chromatographic column Waters UPLC HSS T3 ([…], 2.1 mm×100 mm)—mobile phase: A phase (water, 0.1% formic acid), B phase (methanol)—flow rate: 0.3 mL/min—injection volume: 5.0 μL—column temperature: 40° C. —single sample analysis time: 8 min.
A Waters XEVO TQ-XS tandem quadrupole mass spectrometer is used for mass spectrometry detection. Specific conditions are as follows: positive ion source voltage: 3.0 kV—cone voltage: 30 V—desolvation temperature: 500° C. —desolvation gas flow rate: […]—cone gas flow rate: […].
Data is expressed in the form of Mean±SD. Graphpad is used for data processing and significance analysis. […] A target peak area in polypeptide metabolic data is calculated by using TargetLynx software, and an allowable error of a retention time is 15 s. Concentration calculation is based on a standard curve method to obtain quantitative results.

The AUC is concentration integrated over time. A low value points to less exposure.

SMILES strings stand for the structures. Where a SMILES comes first, the peptide text is derived from it.

Where the note is “15-360 min”, `CC(C)C[C@H](NC(=O)[C@@H](N)Cc1ccc(O)cc1)C(=O)N1CCC[C@H]1C(=O)O` [YLP] (H-Tyr-Leu-Pro-OH; N-terminus and C-terminus assumed) had an AUC of 6.19 ng·h/mL. Moreover, the Cmax (at 90 min, read-out: maximum content of YLP in blood) amounted to 1.31 ± 0.44 ng/mL. For the same molecule, the Tmax (read-out: time of maximum content in blood (converted)) was 1.5 h.
